The text below walks through data of paper PMC11932207, “Regulating AMPA Receptors with Isoxazole-4-Carboxamide Derivatives: An Electrophysiological Study” (Journal of Xenobiotics, 2025).

What all share (assay type): cell-based
The target in one experiment is T1, GluN1a/2A (Homo sapiens, UniProt Q05586+Q12879).
T1 construct: expressed in transfected cells; host or cells: HEK293t cells
Briefly: Selectivity: whole-cell normalized peak current of NMDA receptor GluN1a/2A. Conditions: 16 µM compound, HEK293t, −60 mV. The protocol:
(§1) To evaluate the selectivity of CIC-1 and CIC-2 derivatives, their effects on GluN1a/2A and GluN1a/2B of the NMDA receptors were tested. The normalized peak current responses of the subunits alone and with CIC-1 and CIC-2 were determined (Figure 4).
(§2) Figure 4 The inhibitory actions of Isoxazole-4-carboxamide derivatives on the whole-cell currents mediated by GluA2, GluA2/3 AMPA receptor subtypes and GluN1a/2A, […] receptor subtypes. (a) represents data for CIC-1 and CIC-2 compounds. AMPA- and NMDA-induced currents (black bars) are then compared to currents recorded in the presence of 16 µM CIC compounds (white bars). Panels (b–e) show representative traces of whole-cell current responses to a 1 ms administration of 10 mM glutamate for the subunits. The traces show normalized responses for glutamate alone (black) and glutamate in combination with CIC compounds (color-coded). The recording was performed in HEK293t cells at −60 mV, pH 7.4, and 22 °C. Data present mean ± SD from 3–4 different experiments. *** p < 0.001; and “ns” indicates not significant.

A further experiment concerns the target T2, GluA2 (Rattus norvegicus, UniProt P19491).
T2 construct: expressed in transfected cells; host or cells: HEK293T (HEK293) cells, transient co-transfection with a separate EGFP vector
Briefly: Whole-cell patch clamp recordings of homomeric GluA2 AMPA receptor currents and kinetics in transfected HEK293t cells. The conditions noted are these: for Amplitude (peak whole-cell current in presence of compound): 16 µM compound co-applied with agonist, HEK293t, −60 mV, pH 7.4, 22 °C; for Amplitude (peak whole-cell current in presence of compound) / A/AI (amplitude ratio, glutamate alone / with compound) / t deact (weighted deactivation time constant) / t des (weighted desensitization time constant) / Amplitude, applying glutamate alone after compound: mean ± SD; for Amplitude (peak whole-cell current in presence of compound) / A/AI (amplitude ratio, glutamate alone / with compound) / Amplitude, applying glutamate alone after compound: n = 10; for A/AI (amplitude ratio, glutamate alone / with compound): 16 µM compound; for t deact (weighted deactivation time constant): 10 mM glutamate for 1 ms; for t deact (weighted deactivation time constant) / t des (weighted desensitization time constant): with compound; for t des (weighted desensitization time constant): 10 mM glutamate for 500 ms; for IC50: concentration–response fit, read-out: Log IC50 (converted); for Amplitude, applying glutamate alone after compound: glutamate alone after the compound; for pIC50: inhibition of whole-cell peak current, concentration–response, Hill fit, read-out: IC50; for Increase of deactivation time constant (τdeac): versus control. From the text:
(§3) The AMPA receptor subunits utilized in this study were of the flip isoform. The flip variant of the GluA2 subunit was originally provided by S. F. Heinemann (Salk Institute, La Jolla, CA, USA) in a pBlueScript plasmid. This plasmid was subsequently sub-cloned into a pRK vector to enable expression in HEK293 cells, which were sourced from Sigma, Germany. Additionally, the unedited version of GluA2 (R607Qjj, flip isoform) and enhanced green fluorescent protein (EGFP), both contained in pRK5 vectors, were generously supplied by P. H. Seeburg (Max Planck Institute for Medical Research, Heidelberg, Germany). Chemical-mediated ways induced transfection. GluA2 homomers were expressed into HEK293 cells by the co-transfection of 1 μg GluA2 plasmid with an equal amount of GFP expression vectors (1:1 ratio) into the cells. In addition, co-transfection was conducted for heteromeric GluA2/3 subunits at a ratio of 1:1.2 for optimum expression. For post-transfection experiments, cells were plated in 10% fetal calf serum and antibiotics in DMEM in Petri plates. These cultures were maintained under carefully controlled conditions—37 °C and 5% CO2 within a humidified incubator. The selection of cells for recordings was based on fluorescence intensity. Highly GFP-positive cells were identified and isolated for further analysis, ensuring precise targeting of transfected populations.
(§4) Whole-cell patch clamp recordings were performed on HEK293t cells 36–48 h after transfection. Experiments were conducted at 22 °C, maintaining a holding potential of −60 mV, using an Integrated Patch Amplifier (IPA) from Sutter Instruments (Novato, CA, USA). Data acquisition was managed with SutterPatch Software v. 1.1.1 (Sutter Instruments), employing a sampling rate of 10 kHz and setting the low-pass filter at 2 kHz. […] The external solution contained 150 mM NaCl, 2.8 mM KCl, 0.5 mM MgCl2, 2 mM CaCl2, and 10 mM HEPES, adjusted to a pH of 7.4 using NaOH. The internal pipette solution was composed of 110 mM CsF, 30 mM CsCl, 4 mM NaCl, 0.5 mM CaCl2, 10 mM trypsin-EDTA solution B (0.25%), 0.05% EDTA, and 10 mM HEPES, with the pH adjusted to 7.2 using CsOH.
(§5) A dual-barrel glass pipette (theta tube) was employed for the rapid delivery of glutamate and other solutions. The theta tube was attached to a high-speed piezoelectric solution exchange system (Automate Scientific, Berkeley, CA, USA). To assess the efficiency of solution exchange, open-tip potentials were measured by applying solutions with different ionic compositions after the patch was expelled from the pipette. The time required for a 10–90% change in the solution was generally less than […].
(§6) Data analysis was performed with Igor Pro8.04 software (Wave Metrics, Inc., Portland, OR, USA). AMPA receptor deactivation and desensitization kinetics were measured by applying 10 mM glutamate for 1 ms and 500 ms, respectively. The currents from the AMPA receptor were fitted to a double-exponential model to quantify deactivation and desensitization time constants measured from the double-exponential fits. The weighted tau (τw) is calculated as: τw = (τf × af) + (τs × as), where τf and τs are the time constants of fast and slow exponential components and af and as represent their relative amplitudes.
(§7) Data are presented as the mean ± standard deviation (SD). The total number of HEK293 cells engaged was n = 10. The experimental groups were compared to the wild type using a one-way analysis of variance (ANOVA). Statistical significance was assessed using p values: p < 0.05 (*) indicated significance, p < 0.01 (**) indicated high significance, and p < 0.001 (***) indicated very high significance. The value “ns” indicates non-significance. Concentration–response relationships were modeled using the Hill equation with the resulting combined plots via GraphPad Prism software (version 6.01, GraphPad Software). The data presented are the means from 3–4 experimental replicates. […]
Background: Patch clamp records ionic current or voltage across a cell membrane.

In the next experiment the target is T3, GluA2/3 (UniProt P19491+P42263).
T3 construct: expressed in transfected cells; host or cells: HEK293T (HEK293) cells, transient co-transfection
T3 sequence (P19491 22-883 isoform P19491-2 limits assumed): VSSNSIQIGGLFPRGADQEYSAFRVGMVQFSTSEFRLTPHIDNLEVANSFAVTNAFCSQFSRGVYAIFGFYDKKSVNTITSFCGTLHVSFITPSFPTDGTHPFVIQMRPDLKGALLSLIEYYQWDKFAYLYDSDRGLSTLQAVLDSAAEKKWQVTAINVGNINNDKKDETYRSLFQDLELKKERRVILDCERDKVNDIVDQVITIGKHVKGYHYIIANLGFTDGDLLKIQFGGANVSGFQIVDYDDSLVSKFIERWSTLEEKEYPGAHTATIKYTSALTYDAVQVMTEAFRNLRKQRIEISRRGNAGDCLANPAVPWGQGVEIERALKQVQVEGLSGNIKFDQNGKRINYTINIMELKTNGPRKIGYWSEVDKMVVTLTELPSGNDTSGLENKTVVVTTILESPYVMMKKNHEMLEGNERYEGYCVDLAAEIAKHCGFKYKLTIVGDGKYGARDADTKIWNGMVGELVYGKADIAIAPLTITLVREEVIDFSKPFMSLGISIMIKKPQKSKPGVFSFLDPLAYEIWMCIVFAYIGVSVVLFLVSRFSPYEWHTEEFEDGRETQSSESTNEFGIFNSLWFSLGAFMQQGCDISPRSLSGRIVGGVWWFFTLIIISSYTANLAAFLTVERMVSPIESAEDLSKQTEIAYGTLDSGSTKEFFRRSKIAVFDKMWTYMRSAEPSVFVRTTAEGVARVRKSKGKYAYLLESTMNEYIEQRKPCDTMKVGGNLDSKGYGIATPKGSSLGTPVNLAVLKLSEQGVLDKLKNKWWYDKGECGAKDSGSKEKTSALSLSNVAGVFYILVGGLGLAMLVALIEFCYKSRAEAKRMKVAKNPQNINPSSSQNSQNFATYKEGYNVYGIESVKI
T3 sequence (P42263 29-894 isoform P42263-2 limits assumed): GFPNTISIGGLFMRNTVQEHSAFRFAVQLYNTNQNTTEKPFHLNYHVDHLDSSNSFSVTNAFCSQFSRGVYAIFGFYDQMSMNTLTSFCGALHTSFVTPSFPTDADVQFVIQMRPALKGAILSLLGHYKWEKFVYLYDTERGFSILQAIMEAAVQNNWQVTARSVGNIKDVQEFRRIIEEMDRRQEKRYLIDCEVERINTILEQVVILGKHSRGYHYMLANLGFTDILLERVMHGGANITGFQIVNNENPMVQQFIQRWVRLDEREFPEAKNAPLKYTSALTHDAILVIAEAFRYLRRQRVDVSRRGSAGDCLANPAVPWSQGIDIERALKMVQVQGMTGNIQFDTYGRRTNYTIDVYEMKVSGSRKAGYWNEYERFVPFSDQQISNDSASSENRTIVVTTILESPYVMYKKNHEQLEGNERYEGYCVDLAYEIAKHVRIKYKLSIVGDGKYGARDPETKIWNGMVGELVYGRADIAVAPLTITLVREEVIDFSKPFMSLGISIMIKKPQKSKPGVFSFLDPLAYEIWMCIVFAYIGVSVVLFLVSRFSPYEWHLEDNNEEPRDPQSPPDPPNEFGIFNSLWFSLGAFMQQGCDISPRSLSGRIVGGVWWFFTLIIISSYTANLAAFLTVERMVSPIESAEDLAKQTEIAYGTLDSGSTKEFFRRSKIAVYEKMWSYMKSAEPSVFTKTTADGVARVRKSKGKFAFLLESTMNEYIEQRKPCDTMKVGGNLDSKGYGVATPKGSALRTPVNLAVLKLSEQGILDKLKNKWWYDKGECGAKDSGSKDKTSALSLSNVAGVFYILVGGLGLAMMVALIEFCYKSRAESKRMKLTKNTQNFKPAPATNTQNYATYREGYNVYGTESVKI
Briefly: Whole-cell patch clamp recordings of heteromeric GluA2/3 AMPA receptor currents and kinetics in transfected HEK293t cells. The conditions noted are these: for Amplitude (peak whole-cell current in presence of compound): 16 µM compound co-applied with agonist, HEK293t, −60 mV, pH 7.4, 22 °C; for Amplitude (peak whole-cell current in presence of compound) / A/AI (amplitude ratio, glutamate alone / with compound) / t deact (weighted deactivation time constant) / t des (weighted desensitization time constant) / Amplitude, applying glutamate alone after compound: mean ± SD; for Amplitude (peak whole-cell current in presence of compound) / A/AI (amplitude ratio, glutamate alone / with compound) / Amplitude, applying glutamate alone after compound: n = 10; for A/AI (amplitude ratio, glutamate alone / with compound): 16 µM compound; for t deact (weighted deactivation time constant): 10 mM glutamate for 1 ms; for t deact (weighted deactivation time constant) / t des (weighted desensitization time constant): with compound; for t des (weighted desensitization time constant): 10 mM glutamate for 500 ms; for IC50: concentration–response fit, read-out: Log IC50 (converted); for Amplitude, applying glutamate alone after compound: glutamate alone after the compound; for Increase of deactivation time constant (τdeac): versus control.
Source text: as §3, §4, §5, §6, §7

In a further experiment the target is T4, GluN1a/2B (Homo sapiens, UniProt Q05586+Q13224).
T4 construct: expressed in transfected cells; host or cells: HEK293t cells
T4 sequence (Q13224 27-1484, other chains not shown): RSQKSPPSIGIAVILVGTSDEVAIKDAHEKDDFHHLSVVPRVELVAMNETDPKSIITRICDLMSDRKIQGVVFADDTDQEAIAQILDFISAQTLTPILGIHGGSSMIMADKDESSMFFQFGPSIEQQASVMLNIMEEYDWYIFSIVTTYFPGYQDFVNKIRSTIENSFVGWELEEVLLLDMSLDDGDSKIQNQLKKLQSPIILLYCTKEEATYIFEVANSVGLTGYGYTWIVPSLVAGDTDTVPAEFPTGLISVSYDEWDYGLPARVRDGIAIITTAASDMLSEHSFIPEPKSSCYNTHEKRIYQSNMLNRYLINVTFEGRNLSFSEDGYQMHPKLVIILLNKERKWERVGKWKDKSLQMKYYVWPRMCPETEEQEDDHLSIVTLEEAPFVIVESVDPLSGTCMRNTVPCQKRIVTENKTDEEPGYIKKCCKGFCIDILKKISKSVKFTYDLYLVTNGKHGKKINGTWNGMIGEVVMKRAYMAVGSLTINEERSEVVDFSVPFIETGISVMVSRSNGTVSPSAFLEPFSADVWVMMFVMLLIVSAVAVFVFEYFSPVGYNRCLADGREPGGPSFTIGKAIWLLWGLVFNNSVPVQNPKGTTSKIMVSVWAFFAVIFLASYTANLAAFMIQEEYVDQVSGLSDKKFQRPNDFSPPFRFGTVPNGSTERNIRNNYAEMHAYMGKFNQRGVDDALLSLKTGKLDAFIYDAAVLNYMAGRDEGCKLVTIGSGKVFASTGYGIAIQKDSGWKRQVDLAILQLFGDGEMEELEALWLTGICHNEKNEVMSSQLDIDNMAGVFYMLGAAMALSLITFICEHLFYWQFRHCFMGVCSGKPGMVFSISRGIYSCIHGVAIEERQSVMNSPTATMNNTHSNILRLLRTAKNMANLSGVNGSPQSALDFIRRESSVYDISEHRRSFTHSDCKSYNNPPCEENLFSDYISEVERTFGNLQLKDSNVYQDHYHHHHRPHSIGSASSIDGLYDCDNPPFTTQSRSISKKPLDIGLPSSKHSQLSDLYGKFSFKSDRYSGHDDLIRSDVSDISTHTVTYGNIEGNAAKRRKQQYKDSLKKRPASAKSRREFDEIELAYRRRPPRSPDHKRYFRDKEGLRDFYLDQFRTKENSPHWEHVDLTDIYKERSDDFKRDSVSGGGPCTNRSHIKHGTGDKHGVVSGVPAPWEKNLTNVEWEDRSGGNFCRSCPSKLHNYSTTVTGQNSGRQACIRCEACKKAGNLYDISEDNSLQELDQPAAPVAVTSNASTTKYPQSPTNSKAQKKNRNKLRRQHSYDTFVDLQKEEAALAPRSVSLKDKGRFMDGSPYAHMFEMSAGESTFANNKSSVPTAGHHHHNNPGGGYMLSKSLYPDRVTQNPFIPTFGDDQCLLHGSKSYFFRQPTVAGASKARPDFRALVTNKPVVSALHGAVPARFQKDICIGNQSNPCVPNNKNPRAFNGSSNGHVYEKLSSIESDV
Kind of experiment: Selectivity: whole-cell normalized peak current of NMDA receptor GluN1a/2B. The conditions noted are these: 16 µM compound, HEK293t, −60 mV. The protocol: as §1, §2

The mark [1] stands for this setting: versus glutamate alone, one-way ANOVA.

pIC50: −log10 of the molar value. Where two headings read alike, the source gives them in different places.

T2 sequence (P19491 22-883 isoform P19491-2 limits assumed): as the sequence (P19491 22-883 isoform P19491-2 limits assumed) above
T1 sequence (Q12879 23-1464, other chains not shown): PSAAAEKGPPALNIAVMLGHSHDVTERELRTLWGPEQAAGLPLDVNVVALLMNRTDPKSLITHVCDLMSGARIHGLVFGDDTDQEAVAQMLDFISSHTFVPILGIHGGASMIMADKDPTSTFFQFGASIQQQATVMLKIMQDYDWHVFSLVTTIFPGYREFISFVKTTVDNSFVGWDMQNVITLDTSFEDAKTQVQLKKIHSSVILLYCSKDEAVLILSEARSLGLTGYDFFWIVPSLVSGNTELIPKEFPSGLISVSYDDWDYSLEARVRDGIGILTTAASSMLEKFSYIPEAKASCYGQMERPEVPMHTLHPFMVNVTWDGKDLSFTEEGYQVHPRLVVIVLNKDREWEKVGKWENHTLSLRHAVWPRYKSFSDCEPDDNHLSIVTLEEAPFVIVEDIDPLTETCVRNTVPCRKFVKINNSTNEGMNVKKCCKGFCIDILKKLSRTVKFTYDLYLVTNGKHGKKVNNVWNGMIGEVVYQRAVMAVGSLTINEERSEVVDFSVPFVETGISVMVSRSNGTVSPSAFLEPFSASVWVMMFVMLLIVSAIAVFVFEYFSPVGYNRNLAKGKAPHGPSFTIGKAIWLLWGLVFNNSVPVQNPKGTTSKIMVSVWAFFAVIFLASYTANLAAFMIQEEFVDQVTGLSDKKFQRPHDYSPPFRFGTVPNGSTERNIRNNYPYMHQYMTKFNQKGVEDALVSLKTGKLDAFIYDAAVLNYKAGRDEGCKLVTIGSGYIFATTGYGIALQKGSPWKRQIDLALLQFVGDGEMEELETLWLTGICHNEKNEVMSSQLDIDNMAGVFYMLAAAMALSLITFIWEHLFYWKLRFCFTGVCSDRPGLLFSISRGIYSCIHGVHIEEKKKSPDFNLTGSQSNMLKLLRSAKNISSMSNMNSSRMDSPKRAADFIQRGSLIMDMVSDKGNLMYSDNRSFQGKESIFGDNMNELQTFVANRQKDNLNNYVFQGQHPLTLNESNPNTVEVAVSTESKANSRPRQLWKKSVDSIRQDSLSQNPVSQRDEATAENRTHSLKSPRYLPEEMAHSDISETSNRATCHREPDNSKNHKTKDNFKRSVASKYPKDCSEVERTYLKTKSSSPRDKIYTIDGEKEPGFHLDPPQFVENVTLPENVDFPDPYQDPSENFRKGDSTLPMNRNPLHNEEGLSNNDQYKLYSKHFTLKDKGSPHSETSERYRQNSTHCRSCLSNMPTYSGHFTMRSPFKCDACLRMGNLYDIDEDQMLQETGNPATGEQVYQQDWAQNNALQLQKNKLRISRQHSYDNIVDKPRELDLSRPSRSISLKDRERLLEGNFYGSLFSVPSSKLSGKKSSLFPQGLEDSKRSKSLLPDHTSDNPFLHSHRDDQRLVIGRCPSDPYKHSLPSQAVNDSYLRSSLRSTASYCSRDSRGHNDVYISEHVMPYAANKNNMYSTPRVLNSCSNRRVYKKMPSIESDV

With `CSc1ccc(NC(=O)c2c(-c3c(Cl)cccc3Cl)noc2C)cc1` [CIC-1, 3-(2,6-dichlorophenyl)-5-methyl-N-(4-(methylthio)phenyl)isoxazole-4-carboxamide], the “Effect on normalized peak current” value on GluN1a/2A is listed as “statistically not significant”. Further, on GluA2, the “Amplitude (peak whole-cell current in presence of compound)” value is 156 ± 7 pA; the “A/AI (amplitude ratio, glutamate alone / with compound)” value was 8.11±0.41; the “t deact (weighted deactivation time constant)” value (“t deact” for short) is recorded as 8.3 ± 0.3 ms; the “t des (weighted desensitization time constant)” value (“t des” for short) turned out to be 0.6 ± 0.1 ms. At GluA2, the IC50 (usually the concentration at which inhibition is half-maximal) is 3.02 µM; the “Amplitude, applying glutamate alone after compound” value (from here on “Amplitude, applying glutamate alone”) was 1231±85 pA; the pIC50 (as a rule, −log10 of the IC50, conventionally taken in molar units) is 5.52; the “Increase of deactivation time constant (τdeac)” value (from here on “Increase”) was “approximately 4 fold”. Also, on GluA2/3, the “Amplitude (peak whole-cell current in presence of compound)” value is on record as 73 ± 5 pA; the “A/AI (amplitude ratio, glutamate alone / with compound)” value is reported as 8.02±0.49; the “t deact” value is 8.1 ± 0.4 ms; the “t des” value is given as 0.7 ± 0.2 ms. Further, on GluA2/3, the IC50 was 3.09 µM; the “Amplitude, applying glutamate alone” value amounted to 562±28 pA; the “Increase” value is “approximately 4 fold”. Besides, the “Effect on normalized peak current” value at GluN1a/2B was “statistically not significant”.
Take `COc1cc(NC(=O)c2c(-c3c(Cl)cccc3Cl)noc2C)c(OC)cc1Cl` [CIC-2, N-(4-chloro-2,5-dimethoxyphenyl)-3-(2,6-dichlorophenyl)-5-methylisoxazole-4-carboxamide]: the “Effect on normalized peak current” value on GluN1a/2A was “statistically not significant”. For the same compound, at GluA2, the “Amplitude (peak whole-cell current in presence of compound)” value worked out at 160 ± 12 pA; the “A/AI (amplitude ratio, glutamate alone / with compound)” value is 7.79±0.42; the “t deact” value was 7.9 ± 0.3 ms; the “t des” value stood at 0.7 ± 0.1 ms. At GluA2, the IC50 was 3.16 µM; the “Amplitude, applying glutamate alone” value stood at 1213±94 pA; the pIC50 is 5.50; the “Increase” value is recorded as “approximately 4 fold”. Besides, the “Effect on desensitization kinetics (τdes), in words” value at GluA2 (setting [1]) is given as “accelerating desensitization”. Besides, on GluA2/3, the “Amplitude (peak whole-cell current in presence of compound)” value is reported as 75 ± 6 pA; the “A/AI (amplitude ratio, glutamate alone / with compound)” value was 7.65±0.45; the “t deact” value amounted to 7.8 ± 0.4 ms; the “t des” value was determined as 0.8 ± 0.1 ms. For the same compound, at GluA2/3, the IC50 is 3.31 µM; the “Amplitude, applying glutamate alone” value stood at 552±44 pA; the “Increase” value is on record as “approximately 4 fold”. Besides, at GluA2/3 (inhibition of whole-cell peak current, concentration–response, Hill fit, read-out: IC50), the pIC50 is 5.48. Further, the “Effect on desensitization kinetics (τdes), in words” value on GluA2/3 (setting [1]) was “accelerating desensitization”. For the same compound, the “Effect on normalized peak current” value at GluN1a/2B is “statistically not significant”.
